Measured values from ChEMBL document CHEMBL5143563, “Discovery of DS-3801b, a non-macrolide GPR38 agonist with N-methylanilide structure” (Bioorg Med Chem Lett, 2022).

What was measured:
Motilin receptor [1] = molecular target: T1, Motilin receptor (Homo sapiens, UniProt O43193); test: Agonist activity at human GPR38 expressed in COS-7 cells; type: functional, cell-based
CYP3A4 [2] = molecular target: T2, CYP3A4 (Homo sapiens, UniProt P08684); test: Inhibition of CYP3A4 in human liver microsomes assessed as remaining activity; type: ADME, Microsome; set-up: concentration or dose not given beside the values
[3] = Lipophilicity, logD of the compound at pH 7.4; conditions: buffer
Motilin receptor [4] = molecular target: T1, Motilin receptor; test: Potency index, ratio of GSK962040 EC50 to test compound EC50 for human GPR38 expressed in COS-7 cells; type: functional, cell-based
[5] = Agonist activity at rabbit GPR38 expressed in COS-7 cells; type: cell-based; conditions: Oryctolagus cuniculus
[6] = Ex vivo agonist activity at GPR38 in rabbit duodenum muscle tissue assessed as intestinal contractile activity; type: tissue-based, Oryctolagus cuniculus
Oryctolagus cuniculus = species on record: Oryctolagus cuniculus; test: Potency index, ratio of GSK962040 EC50 to test compound EC50 for Ex vivo agonist activity at GPR38 in rabbit duodenum muscle tissue; type: tissue-based
[7] = Effective permeability of the compound at pH 5 by PAMPA assay; type: ADME; conditions: read-out: Peff
[8] = Effective permeability of the compound at pH 7.4 by PAMPA assay; type: ADME; conditions: read-out: Peff
[9] = Protein binding in human; type: ADME; conditions: read-out: PB (converted)
[10] = Protein binding in rabbit; type: ADME, Oryctolagus cuniculus; conditions: read-out: PB (converted)
CYP1A2 = molecular target: T3, CYP1A2 (Homo sapiens, UniProt P05177); test: Inhibition of CYP1A2 (unknown origin) at 10 uM; type: ADME
T3 sequence (P05177 whole entry): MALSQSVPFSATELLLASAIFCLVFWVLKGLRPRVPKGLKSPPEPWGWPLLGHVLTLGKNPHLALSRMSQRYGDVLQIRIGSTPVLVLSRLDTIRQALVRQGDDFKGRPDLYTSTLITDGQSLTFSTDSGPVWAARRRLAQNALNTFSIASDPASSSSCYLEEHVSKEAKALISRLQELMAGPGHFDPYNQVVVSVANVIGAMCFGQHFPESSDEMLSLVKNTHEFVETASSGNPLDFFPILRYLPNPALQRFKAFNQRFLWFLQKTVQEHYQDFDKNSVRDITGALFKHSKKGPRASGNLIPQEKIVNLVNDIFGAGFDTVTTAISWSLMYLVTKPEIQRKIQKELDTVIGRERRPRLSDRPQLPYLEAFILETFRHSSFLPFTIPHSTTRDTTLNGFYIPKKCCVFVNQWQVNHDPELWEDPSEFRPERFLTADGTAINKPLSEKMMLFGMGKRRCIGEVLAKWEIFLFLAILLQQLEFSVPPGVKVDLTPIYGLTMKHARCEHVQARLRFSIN

CYP2C9 = CYP2C9 (Homo sapiens, UniProt P11712); test: Inhibition of CYP2C9 (unknown origin) at 10 uM; type: ADME
CYP2D6 = CYP2D6 (Homo sapiens, UniProt P10635); test: Inhibition of CYP2D6 (unknown origin) at 10 uM; type: ADME
CYP3A4 [11] = molecular target: T2, CYP3A4; test: Inhibition of CYP3A4 (unknown origin) at 10 uM; type: ADME

T2 sequence (P08684 whole entry): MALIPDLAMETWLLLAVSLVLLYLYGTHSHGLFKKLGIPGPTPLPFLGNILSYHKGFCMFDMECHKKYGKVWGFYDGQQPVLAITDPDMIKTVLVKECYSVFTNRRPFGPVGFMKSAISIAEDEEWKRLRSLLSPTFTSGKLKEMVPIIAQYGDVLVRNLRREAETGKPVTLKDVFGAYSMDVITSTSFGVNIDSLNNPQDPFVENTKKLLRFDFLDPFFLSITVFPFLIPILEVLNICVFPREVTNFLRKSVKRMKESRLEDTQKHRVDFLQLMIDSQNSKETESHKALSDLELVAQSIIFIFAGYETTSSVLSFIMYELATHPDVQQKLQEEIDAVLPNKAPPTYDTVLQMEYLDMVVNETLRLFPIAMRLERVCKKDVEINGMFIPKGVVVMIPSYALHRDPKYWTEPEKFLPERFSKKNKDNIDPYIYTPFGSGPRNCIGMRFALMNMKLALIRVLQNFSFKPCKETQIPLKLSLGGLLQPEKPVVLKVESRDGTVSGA
T1 sequence (O43193 whole entry): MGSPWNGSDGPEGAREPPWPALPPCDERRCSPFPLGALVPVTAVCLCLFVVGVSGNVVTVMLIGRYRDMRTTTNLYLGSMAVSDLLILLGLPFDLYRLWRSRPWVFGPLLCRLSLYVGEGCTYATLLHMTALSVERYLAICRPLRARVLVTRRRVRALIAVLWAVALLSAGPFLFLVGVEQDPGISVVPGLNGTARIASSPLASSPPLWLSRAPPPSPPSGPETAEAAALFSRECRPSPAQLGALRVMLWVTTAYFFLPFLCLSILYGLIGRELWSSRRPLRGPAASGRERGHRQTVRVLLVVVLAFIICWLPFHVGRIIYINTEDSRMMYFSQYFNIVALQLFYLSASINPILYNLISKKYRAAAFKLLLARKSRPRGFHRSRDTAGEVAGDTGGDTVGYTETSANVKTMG
Chain of CYP2C9 (P11712 whole entry): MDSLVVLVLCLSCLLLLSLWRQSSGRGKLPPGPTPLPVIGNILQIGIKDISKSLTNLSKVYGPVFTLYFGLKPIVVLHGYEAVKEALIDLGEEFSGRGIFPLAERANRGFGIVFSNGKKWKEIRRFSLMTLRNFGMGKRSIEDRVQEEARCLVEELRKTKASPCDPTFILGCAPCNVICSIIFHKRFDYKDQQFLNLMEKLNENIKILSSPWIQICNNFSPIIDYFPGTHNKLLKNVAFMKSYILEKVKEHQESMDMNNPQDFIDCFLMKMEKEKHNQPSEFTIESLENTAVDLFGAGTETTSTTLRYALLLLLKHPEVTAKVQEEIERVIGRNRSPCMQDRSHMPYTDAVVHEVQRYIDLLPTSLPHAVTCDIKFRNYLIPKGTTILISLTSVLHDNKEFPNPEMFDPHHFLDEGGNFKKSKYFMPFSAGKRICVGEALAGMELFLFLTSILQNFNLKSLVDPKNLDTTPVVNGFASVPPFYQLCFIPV
Chain of CYP2D6 (P10635 whole entry): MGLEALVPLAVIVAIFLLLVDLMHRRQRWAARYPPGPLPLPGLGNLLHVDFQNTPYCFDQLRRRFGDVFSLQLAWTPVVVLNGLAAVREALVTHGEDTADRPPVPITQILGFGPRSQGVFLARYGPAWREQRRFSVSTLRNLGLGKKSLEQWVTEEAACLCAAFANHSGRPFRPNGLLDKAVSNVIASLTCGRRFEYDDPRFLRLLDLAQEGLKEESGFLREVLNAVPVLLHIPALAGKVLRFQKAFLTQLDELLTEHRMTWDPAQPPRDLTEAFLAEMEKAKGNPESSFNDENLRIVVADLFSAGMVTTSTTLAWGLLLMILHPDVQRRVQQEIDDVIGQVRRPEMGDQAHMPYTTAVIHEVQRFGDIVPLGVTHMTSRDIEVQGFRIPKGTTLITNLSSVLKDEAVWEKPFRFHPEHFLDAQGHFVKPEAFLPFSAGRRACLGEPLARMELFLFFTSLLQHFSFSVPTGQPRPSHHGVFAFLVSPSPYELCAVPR

Compound	EC50 (Motilin receptor [1])	activity (CYP3A4 [2])	logD [3]	EC50 [5]	also measured
CCOCc1cccc(N[C@H]2CC[C@H](C(=O)N(C)c3ccc(CN4CCN[C@@H](C)C4)c(C)c3)CC2)c1	2.6 nM	61%	2.5	–	–
C[C@@H]1CN(Cc2ccc(-c3cccnc3C(=O)N3CCC(Cc4ccc(F)cc4)CC3)cc2)C[C@H](C)N1	51 nM	–	–	3.8 nM	Ratio EC50 (Motilin receptor [4]): 20
Cc1cc(N(C)C(=O)[C@H]2CC[C@H](Oc3ccc(F)cc3)CC2)ccc1CN1CCNCC1	46 nM	82%	–	1.3 nM	–
Cc1cc(CN2CCN[C@@H](C)C2)ccc1N(C)C(=O)[C@H]1CC[C@H](Oc2ccc(F)cc2)CC1	240 nM	40%	–	–	–
C[C@H]1CN(Cc2ccc(N(C)C(=O)[C@H]3CC[C@H](Oc4ccc(F)cc4)CC3)cc2Cl)CCN1	2 nM	23%	–	0.18 nM	–
C[C@H]1CN(Cc2ccc(-c3cccnc3N3CCC(Nc4cccc(F)c4)CC3)cc2)CCN1	18 nM	–	–	1.7 nM	–
Cc1cc(N(C)C(=O)[C@H]2CC[C@H](Oc3cccc(C(=O)O)c3)CC2)ccc1CN1CCN[C@@H](C)C1	> 10000 nM	101%	-0.4	1300 nM	–
C[C@H]1CN(Cc2ccc(NC(=O)[C@H]3CC[C@H](Oc4ccc(F)cc4)CC3)cc2)CCN1	> 10000 nM	–	–	> 10000 nM	–
Cc1cc(N(C)C(=O)[C@H]2CC[C@H](Oc3ccc(F)cn3)CC2)ccc1CN1CCN[C@@H](C)C1	4.6 nM	47%	1.9	0.26 nM	–
Cc1cc(N(C)C(=O)[C@H]2CC[C@H](Oc3cccc(CC(C)(C)O)c3)CC2)ccc1CN1CCN[C@@H](C)C1	4.3 nM	50%	2	1.1 nM	–
Cc1cc(N(C)C(=O)[C@H]2CC[C@H](Oc3ccc(F)cc3)CC2)ccc1CN1CCN[C@@H](C)C1	2.1 nM	32%	2.5	0.21 nM	–
Cc1cc(N(C)C(=O)[C@H]2CC[C@H](Oc3cccc(CCO)c3)CC2)ccc1CN1CCN[C@@H](C)C1	4.7 nM	60%	1.3	0.51 nM	–
CC[C@H]1CN(Cc2ccc(N(C)C(=O)[C@H]3CC[C@H](Oc4ccnc(C#N)c4)CC3)cc2C)CCN1	11 nM	68%	1	1.2 nM	EC50 [6]: 4.8 nM
C[C@H]1CN(Cc2ccc(CC(=O)N3CCC(Nc4cccc(F)c4)CC3)cc2)CCN1 [CAMICINAL]	970 nM	–	–	42 nM	EC50 [6]: 82.6 nM
CC[C@H]1CN(Cc2ccc(N(C)C(=O)[C@H]3CC[C@H](Oc4ccc(F)cc4)CC3)cc2C)CCN1	350 nM	29%	–	–	–
Cc1cc(N(C)C(=O)[C@H]2CC[C@H](Oc3ccc(F)c(CO)c3)CC2)ccc1CN1CCN[C@@H](C)C1	7.5 nM	54%	1.6	0.62 nM	–
Cc1cc(N(C)C(=O)[C@H]2CC[C@H](Oc3cccc(CC(=O)NC(C)C)c3)CC2)ccc1CN1CCN[C@@H](C)C1	1.6 nM	68%	1.8	0.26 nM	–
C[C@H]1CN(Cc2ccc(N(C)C(=O)[C@H]3CC[C@H](Oc4ccc(F)cc4)CC3)cc2)CCN1	55 nM	44%	–	2.6 nM	EC50 [6]: 28 nM
CC[C@H](C)[C@H](NC(=O)[C@@H]1CCCN1C(=O)[C@@H](NC(=O)[C@@H](N)Cc1ccccc1)C(C)C)C(=O)N[C@@H](Cc1ccccc1)C(=O)N[C@H](C(=O)N[C@@H](Cc1ccc(O)cc1)C(=O)NCC(=O)N[C@@H](CCC(=O)O)C(=O)N[C@@H](CC(C)C)C(=O)N[C@@H](CCC(N)=O)C(=O)N[C@@H](CCCNC(=N)N)C(=O)N[C@@H](CCSC)C(=O)N[C@@H](CCC(N)=O)C(=O)N[C@@H](CCC(=O)O)C(=O)N[C@@H](CCCCN)C(=O)N[C@@H](CCC(=O)O)C(=O)N[C@@H](CCCNC(=N)N)C(=O)N[C@@H](CC(N)=O)C(=O)N[C@@H](CCCCN)C(=O)NCC(=O)N[C@@H](CCC(N)=O)C(=O)O)[C@@H](C)O	0.97 nM	–	–	0.16 nM	EC50 [6]: 0.23 nM
Cc1cc(N(C)C(=O)[C@H]2CC[C@H](Oc3ccc(Cl)c(CO)c3)CC2)ccc1CN1CCN[C@@H](C)C1	1.8 nM	56%	–	0.13 nM	–
Cc1cc(N(C)C(=O)[C@H]2CC[C@H](Oc3cccc(CO)c3)CC2)ccc1CN1CCN[C@@H](C)C1	5.3 nM	74%	1.3	1.3 nM	EC50 [6]: 7.3 nM; Ratio EC50 (Oryctolagus cuniculus): 11; Papp [7]: 1.5 ×10⁻⁶ cm/s; Papp [8]: 48 ×10⁻⁶ cm/s; fraction unbound [9]: 0.228; fraction unbound [10]: 0.335; inhibition at 10 µM (CYP1A2): 13%; inhibition at 10 µM (CYP2C9): 5.3%; inhibition at 10 µM (CYP2D6): 8.8%; inhibition at 10 µM (CYP3A4 [11]): 3.1%
Cc1cc(N(C)C(=O)[C@H]2CC[C@H](Oc3cc(CO)ccc3C)CC2)ccc1CN1CCN[C@@H](C)C1	5.6 nM	54%	–	1 nM	–
